Test system: γδ T cells
Assay: γδ T cell expansion in defined medium
Type: cell-based, human
Details: defined medium with IL-2, IL-15, Amphotericin B

In the case of `O=P(O)(O)C(O)(Cn1ccnc1)P(=O)(O)O` [Zoledronate, Zoledronic acid], the “fold increase in absolute number of γδ T cells” value (“fold increase … of γδ T cells” for short) (Donor 20, Day 0 to Day 17) is reported as 3,350 fold, the “fold increase … of γδ T cells” value (Donor 20, Day 0 to Day 22) is reported as 11,060 fold and the “fold increase … of γδ T cells” value (Donor 20, Day 0 to Day 29) is reported as 31,666 fold. The “fold increase … of γδ T cells” value (Donor 21, Day 0 to Day 17) was 4,633 fold, the “fold increase … of γδ T cells” value (Donor 21, Day 0 to Day 22) was 12,320 fold and the “fold increase … of γδ T cells” value (Donor 21, Day 0 to Day 29) was 32,833 fold.

Source: patent US12440541B2, “Methods for expanding and activating γσ T cells for the treatment of cancer and related malignancies” (priority 2017, dated 2025)
